Measurements from patent US20250223306A1, “TEAD INHIBITORS AND METHODS OF USE” (Sporos BioDiscovery, Inc., priority 2022, published 2025).

Tests used:
LOU-NH91 cells = test: LOU-NH91 proliferation and cell viability assay (CTG); assay type: cell-based; settings: LOU-NH91 cell line, 216 hours
Method: LOU-NH91 cells were trypsinised, counted and plated at the specified cell density in 200 μl of growth media in 96 well flat bottom tissue culture treated plates. The plated cells were incubated overnight at 37° C., 5% CO2 before being treated with compounds in triplicate for each assay point. 50 μl of the serially diluted compound was added to each well giving a final DMSO concentration of 0.5% per well and a total volume of 250 μl per well. The treated cells were incubated for 216 hours (9 days) at 37° C., 5% CO2. Following compound treatment, the remaining viable cells were detected using the Promega CellTiter-Glo 2.0 assay as follows: 150 μl of media was removed from each of the wells to be assayed and 100 μl of room temperature CellTiter-Glo 2.0 reagent was added. The plate was placed on an orbital shaker at 500 rpm at room temperature for 2 minutes, and then incubated without shaking for a further 10 minutes at room temperature. 150 μl of cell lysate was removed from each well and dispensed into a single well of a white opaque 96 well plate. Luminescence at 545 nm was read using a BMG CLARIOstar plate reader. The luminescent signal was directly proportional to number of viable cells, the percent of viable cells relative to the DMSO control was then calculated for each assay point. Percent viability relative to DMSO control was plotted against compound concentration and a curve fitted with non-linear regression in GraphPad Prism software. EC50 and IC50 values were calculated using GraphPad Prism software as follows: For EC50 values a non-constrained four-parameter logistic curve fit was used (Sigmoidal, 4PL, X is concentration). For Absolute IC50 values the baseline was constrained to Y=0 (Absolute IC50, X is concentration). Area Under the Curve (AUC): Prism computes area-under-the-curve by the trapezoidal method. The analysis sees a fitted curve as simply a series of connected XY points. Prism simply computes the area under the “curve” defined by connecting the points by straight lines. The units of the AUC are the units of the Y axis times units of the X axis.

TEAD4 = TEAD4 (Homo sapiens, UniProt Q15561); test: TEAD thermal shift assay (TSA); assay type: binding
TEAD4, sequence (Q15561 whole entry): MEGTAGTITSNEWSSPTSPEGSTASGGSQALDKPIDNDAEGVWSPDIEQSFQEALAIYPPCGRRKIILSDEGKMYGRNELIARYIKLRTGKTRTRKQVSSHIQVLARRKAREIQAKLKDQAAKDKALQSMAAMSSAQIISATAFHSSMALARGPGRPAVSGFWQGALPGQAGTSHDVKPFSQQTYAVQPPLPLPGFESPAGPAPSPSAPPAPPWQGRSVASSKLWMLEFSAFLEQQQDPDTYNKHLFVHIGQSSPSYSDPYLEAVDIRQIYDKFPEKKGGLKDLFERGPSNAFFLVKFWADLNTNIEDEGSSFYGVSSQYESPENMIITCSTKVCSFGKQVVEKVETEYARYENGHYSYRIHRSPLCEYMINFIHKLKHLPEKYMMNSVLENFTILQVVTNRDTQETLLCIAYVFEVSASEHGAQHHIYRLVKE
Excerpt: (§1) Thermal shift assay (TSA) is a biophysical method to evaluate stability of proteins with change in temperature. The assay measures thermal denaturation temperature in varying conditions such as different drug concentration. For this example, fluorogenic dye was used that bind to unfolded proteins. SYPRO Orange binds non-specifically to hydrophobic surfaces, and water strongly quenches its fluorescence. When the protein unfolds, the exposed hydrophobic surfaces bind the dye, resulting in an increase in fluorescence by excluding water. Detergent micelles also bind the dye and increase background noise dramatically. Binding of small molecules to proteins leads to a stabilization against to thermal denaturation with the degree of thermal stabilization proportional to the strength of binding.
(§2) The study described in this example investigated the change in melting temperature (ΔTm) of TEAD isoforms 1˜4 when treated with TEAD inhibitors. Compound 1-1-a known strong TEAD1 and weak TEAD2 inhibitor; as well as Compound 1-4-a pan-TEAD inhibitor were used as controls.
(§3) Tris-HCL was dissolved in 5 mL of Cell culture grade water and allowed to dissolve completely. The pH was adjusted to 8 using NaOH. Additional assay buffer components were added in the order listed above. The buffer was mixed slowly.
(§4) Assay buffer was prepared according to the procedures outlined above and dispensed into test wells. Spyro orange was added to a concentration of 5× in the assay buffer, followed by test compound stock solution which was added to a concentration of 10 μM or 30 μM in the assay buffer.
(§5) The melt cycle was performed in Bio-RAD PCR instrument from 20-95° C. with ramp rate of 1° C./min.

TEAD3 = TEAD3 (Homo sapiens, UniProt Q99594); test: TEAD thermal shift assay (TSA); assay type: binding
TEAD3, sequence (Q99594 whole entry): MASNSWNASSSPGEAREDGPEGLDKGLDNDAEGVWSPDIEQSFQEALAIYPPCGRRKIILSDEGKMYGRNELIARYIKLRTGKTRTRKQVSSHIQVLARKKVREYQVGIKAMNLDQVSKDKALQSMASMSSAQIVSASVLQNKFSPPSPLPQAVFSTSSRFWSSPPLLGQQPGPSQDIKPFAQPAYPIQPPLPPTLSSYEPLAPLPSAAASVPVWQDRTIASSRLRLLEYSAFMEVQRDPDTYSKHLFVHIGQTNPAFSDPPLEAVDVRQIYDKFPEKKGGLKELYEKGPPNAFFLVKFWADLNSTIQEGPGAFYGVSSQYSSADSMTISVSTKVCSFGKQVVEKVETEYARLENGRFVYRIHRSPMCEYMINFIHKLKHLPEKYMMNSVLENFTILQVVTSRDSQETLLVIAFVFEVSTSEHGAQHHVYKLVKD
Excerpt: as §1, §2, §3, §4, §5

TEAD1 = TEAD1 (Homo sapiens, UniProt P28347); test: TEAD thermal shift assay (TSA); assay type: binding
TEAD1, sequence (P28347 whole entry): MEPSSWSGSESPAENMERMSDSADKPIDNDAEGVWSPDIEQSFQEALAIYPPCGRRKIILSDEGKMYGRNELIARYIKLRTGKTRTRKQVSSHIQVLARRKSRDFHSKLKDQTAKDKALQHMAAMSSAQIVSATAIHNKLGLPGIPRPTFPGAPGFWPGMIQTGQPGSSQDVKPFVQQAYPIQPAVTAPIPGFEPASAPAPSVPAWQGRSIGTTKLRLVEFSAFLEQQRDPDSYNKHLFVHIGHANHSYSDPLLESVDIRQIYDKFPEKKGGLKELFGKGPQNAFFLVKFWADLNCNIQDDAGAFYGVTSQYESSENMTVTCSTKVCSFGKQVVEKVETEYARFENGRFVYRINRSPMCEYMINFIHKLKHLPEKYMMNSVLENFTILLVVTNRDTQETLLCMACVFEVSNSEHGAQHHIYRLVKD
Excerpt: as §1, §2, §3, §4, §5

TEAD2 = TEAD2 (Homo sapiens, UniProt Q15562); test: TEAD thermal shift assay (TSA); assay type: binding
TEAD2, sequence (Q15562 whole entry): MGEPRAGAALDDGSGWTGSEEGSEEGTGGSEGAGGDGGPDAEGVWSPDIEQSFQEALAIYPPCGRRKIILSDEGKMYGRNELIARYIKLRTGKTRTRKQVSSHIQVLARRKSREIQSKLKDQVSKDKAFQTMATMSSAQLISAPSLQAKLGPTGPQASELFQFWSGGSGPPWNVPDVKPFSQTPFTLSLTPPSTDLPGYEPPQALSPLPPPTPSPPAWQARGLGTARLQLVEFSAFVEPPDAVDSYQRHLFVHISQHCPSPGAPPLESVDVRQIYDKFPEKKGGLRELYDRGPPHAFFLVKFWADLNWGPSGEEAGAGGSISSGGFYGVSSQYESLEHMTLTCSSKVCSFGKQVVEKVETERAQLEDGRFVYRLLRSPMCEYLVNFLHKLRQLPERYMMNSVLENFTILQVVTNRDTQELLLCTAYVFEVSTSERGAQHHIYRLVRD
Excerpt: as §1, §2, §3, §4, §5

BHY cells = test: BHY proliferation and cell viability assay (CTG); assay type: cell-based; settings: BHY cell line
Method: BHY cells were trypsinised, counted and plated at the specified cell density in 200 μl of growth media in 96 well flat bottom tissue culture treated plates. The plated cells were incubated overnight at 37° C., 5% CO2 before being treated with compounds in triplicate for each assay point. 50 μl of the serially diluted compound was added to each well giving a final DMSO concentration of 0.5% per well and a total volume of 250 μl per well. The treated cells were incubated for 144 hours (6 days) at 37° C., 5% CO2. Following compound treatment, the remaining viable cells were detected using the Promega CellTiter-Glo 2.0 assay as follows: 150 μl of media was removed from each of the wells to be assayed and 100 μl of room temperature CellTiter-Glo 2.0 reagent was added. The plate was placed on an orbital shaker at 500 rpm at room temperature for 2 minutes, and then incubated without shaking for a further 10 minutes at room temperature. 150 μl of cell lysate was removed from each well and dispensed into a single well of a white opaque 96 well plate. Luminescence at 545 nm was read using a BMG CLARIOstar plate reader. The luminescent signal was directly proportional to number of viable cells, the percent of viable cells relative to the DMSO control was then calculated for each assay point. Percent viability relative to DMSO control was plotted against compound concentration and a curve fitted with non-linear regression in GraphPad
Prism software. EC50 and IC50 values are calculated using GraphPad Prism software as follows: For EC50 values, a non-constrained four-parameter logistic curve fit was used (Sigmoidal, 4PL, X is concentration). For Absolute IC50 values the baseline was constrained to Y=0 (Absolute IC50, X is concentration). Area Under the Curve (AUC): Prism computes area-under-the-curve by the trapezoidal method. The analysis sees a fitted curve as simply a series of connected XY points. Prism simply computes the area under the “curve” defined by connecting the points by straight lines. The units of the AUC are the units of the Y axis times units of the X axis.

NCI-H226 xenograft = test: Inhibition of mouse xenograft NCI-H226 tumors; assay type: in vivo, BALB/c nude mice; settings: Day 27; 3 mg/kg, p.o., QD
Excerpt: This study evaluated the in vivo therapeutic efficacy of TEAD inhibitors in the treatment of the subcutaneous lung cancer NCI-H226 xenograft model in female BALB/c nude mice.
• ANOVA Analysis of variance • BW Body weight • BWL Body weight loss • FFPE Formalin fixed paraffin embedded • IACUC Institutional animal care and use committee • MTV Mean tumor volume • N/A Not available or not applicable • p.o. Oral (ly) • QD Once a day • REG REG=[(T0−Ti)/T0]×100%; • Ti as the mean tumor volume of the treatment group on the measurement day; • T0 as the mean tumor volume of the treatment group on Day 0. • ROA Route of administration • RT Room temperature • RTV Relative tumor volume • SD Standard deviation • SEM Standard error of mean • SOC Standard of care used in clinical setting for a specific disease • TBD To be determined • T/C The Ti/Ci value (%): T/C %=Ti/Ci×100; • Ti and Ci are the mean tumor volumes of the treatment and control groups, respectively, on a given day. • TGI Tumor growth inhibition; TGI %=(1−Ti/Ci)×100; • Ti and Ci are the mean tumor volumes of the treatment and control groups, respectively, on a given day. • TV Tumor volume • PK/PD Pharmacokinetics/Pharmacodynamics • ΔInhibition Mean % ΔInhibition=((Ci−C0)−(Ti−T0))/(Ci−C0)*100% • Ti and Ci are the mean tumor volumes of the treatment and control groups, respectively, on a given day. T0 and C0 as the mean tumor volumes of the treatment and vehicle groups on Day 0.
• Species Mus musculus • Strain Balb/c nude • Supplier GemPharmatech Co., Ltd • Gender Female • No. of Animals Ordered 68 (45 plus 23 spare) • No. of Animals Assigned 45 • to Study • Average Age of Animals 6-8 weeks • at Study Initiation
The NCI-H226 cells (CL-00364) cancer cells were maintained in vitro with RPMI1640 medium supplemented with 10% fetal bovine serum at 37° C. in an atmosphere of 5% CO2 in the air. The cells in exponential growth phase were harvested and quantitated by cell counter before tumor inoculation.
Each mouse was inoculated subcutaneously in the right front flank region with NCI-H226 tumor cells (1×10^7) in 0.2 ml of PBS mixed with Matrigel (1:1) for tumor development.
The randomization was performed when the mean tumor size reached 138.81 mm^3. 45 mice were enrolled in the study. All animals were randomly allocated to 9 study groups, 5 mice in each group. Randomization was performed based on “Matched distribution” method/“Stratified” method (StudyDirector™ software, version 3.1.399.19)/randomized block design. The date of randomization was denoted as day 0.
The treatment was initiated on the same day of randomization (day 0) per study design.
After tumor cells inoculation, the animals were checked daily for morbidity and mortality. During routine monitoring, the animals were checked for any effects of tumor growth and treatments on behavior such as mobility, food and water consumption, body weight gain/loss (Body weights were measured twice per week after randomization), eye/hair matting and any other abnormalities. Mortality and observed clinical signs were recorded for individual animals in detail.
Tumor volumes were measured twice per week after randomization in two dimensions using a caliper, and the volume was expressed in mm^3 using the formula: “V=(L×W×W)/2, where V is tumor volume, L is tumor length (the longest tumor dimension) and W is tumor width (the longest tumor dimension perpendicular to L). Dosing as well as tumor and body weight measurements were conducted in a Laminar Flow Cabinet.
To compare tumor volumes of different groups at a pre-specified day, Bartlett's test was first used to check the assumption of homogeneity of variance across all groups. When the p-value of Bartlett's test was >=0.05, one-way ANOVA was performed to test overall equality of means across all groups. […]

SDM103T2 cells = test: SDM103T2 proliferation and cell viability assay (CTG); assay type: cell-based; settings: SDM103T2 cell line, 144 hours
Method: SDM103T2 cells were trypsinised, counted and plated at the specified cell density in 200 μl of growth media in 96 well flat bottom tissue culture treated plates. The plated cells were incubated overnight at 37° C., 5% CO2 before being treated with compounds in triplicate for each assay point. 50 μl of the serially diluted compound was added to each well giving a final DMSO concentration of 0.5% per well and a total volume of 250 μl per well. The treated cells were incubated for 144 hours (6 days) at 37° C., 5% CO2. Following compound treatment the remaining viable cells were detected using the Promega CellTiter-Glo 2.0 assay as follows: 150 μl of media was removed from each of the wells to be assayed and 100 μl of room temperature CellTiter-Glo 2.0 reagent was added. The plate was placed on an orbital shaker at 500 rpm at room temperature for 2 minutes, and then incubated without shaking for a further 10 minutes at room temperature. 150 μl of cell lysate was removed from each well and dispensed into a single well of a white opaque 96 well plate. Luminescence at 545 nm was read using a BMG CLARIOstar plate reader. The luminescent signal was directly proportional to number of viable cells, the percent of viable cells relative to the DMSO control was then calculated for each assay point. Percent viability relative to DMSO control was plotted against compound concentration and a curve fitted with non-linear regression in GraphPad Prism software. EC50 and IC50 values were calculated using GraphPad Prism software as follows: For EC50 values a non-constrained four-parameter logistic curve fit was used (Sigmoidal, 4PL, X is concentration). For Absolute IC50 values the baseline was constrained to Y=0 (Absolute IC50, X is concentration). Area Under the Curve (AUC): Prism computes area-under-the-curve by the trapezoidal method. The analysis sees a fitted curve as simply a series of connected XY points. Prism simply computes the area under the “curve” defined by connecting the points by straight lines. The units of the AUC are the units of the Y axis times units of the X axis.

[1] = ratio of protein to compound 1:1
[2] = ratio of protein to compound 1:3

TEAD4 ΔTm (TEAD4; [1]) | TEAD4 ΔTm (TEAD4; [2]) | TEAD3 ΔTm (TEAD3; [1]) | TEAD1 ΔTm (TEAD1; [1]) | TEAD1 ΔTm (TEAD1; [2]) | TEAD2 ΔTm (TEAD2; [1]) | SMILES | EC50 (LOU-NH91 cells) | EC50 (BHY cells; 144 h) | EC50 (BHY cells; 144 hours) | also measured
5 °C | 7 °C | 4 °C | 9 °C | 10 °C | 2 °C | C[C@H](CO)NC(=O)c1cnc2c(C3=CCC(C(F)(F)F)CC3)cccc2c1 (single isomer, unassigned) [Compound 81] | < 200 nM | < 200 nM |  | TEAD3 ΔTm (TEAD3; [2]): 5 °C; TEAD2 ΔTm (TEAD2; [2]): 3 °C
 |  |  |  |  |  | COC[C@H](CO)NC(=O)c1cnc2c(C3=CCC(C(F)(F)F)CC3)cccc2c1 (single isomer, unassigned) [Compound 103] | < 200 nM | < 200 nM |  | 
 |  |  |  |  |  | C[C@H](CO)NC(=O)c1cnc2c(C3=CCC(C(F)(F)F)CC3)cccc2c1 (single isomer, unassigned) [Compound 82] | < 200 nM |  | 200 to 1000 nM | 
0 °C | 1 °C | 0 °C | 2 °C | 8 °C | 1 °C | CNS(=O)(=O)c1ccc(Nc2ccc(C(F)(F)F)cc2)c(-c2cn(C)cn2)c1 [Compound 1-1, reference compound] |  |  |  | T/C (NCI-H226 xenograft): 12.51%; TGI (NCI-H226 xenograft): 87.49%; Tumor Volume (mean ± SEM) (NCI-H226 xenograft): 66.85 ± 12.17 mm^3; EC50 (SDM103T2 cells): < 200 nM; thermal shift / binding across TEAD isoforms, in words (TEAD1; summary of Table 14 over TEAD1-4): pronounced thermal shift only for TEAD1
 |  |  |  |  |  | COC[C@H](CO)NC(=O)c1cnc2c(C3=CCC(C(F)(F)F)CC3)cccc2c1 (single isomer, unassigned) [Compound 104] | < 200 nM |  | < 200 nM | 
